Data as given in patent publication US8518707B2, “Method of monitoring adsorbent bed breakthrough in a process for producing alkyl esters from vegetable or animal oil and from an aliphatic monoalcohol” (IFP Energies Novelles, priority 2008, dated 2013).

How the values were obtained:
[1] = Solubility limit of glycerol in vegetable rape oil methyl ester (equilibrium with excess glycerol, GC per EN 14,214); type: physicochemical; conditions: solubility limit in vegetable rape oil methyl ester phase
Source text: It has therefore been necessary to determine it. Experimental measurements were therefore carried out on the vegetable rape oil methyl ester/glycerol system. The solubility measurements consisted in bringing together ester and glycerol in excess so as to obtain two distinct phases and to be sure the ester phase is saturated with glycerol, in a thermostat-controlled oven, at the selected temperature, long enough for equilibrium to be reached. A sample is then taken from the ester phase and analysed by gas chromatography according to the method of determining glycerol in ester described in the EN 14,214 standard.

[2] = Soluble glycerol in the ester stream after methanol evaporation (Esterfip-H process); type: physicochemical; conditions: methyl ester stream after alcohol evaporation, ambient temperature
Source text: In the Esterfip-H™ process developed by IFP and using a heterogeneous catalyst, separation between the glycerol and the ester produced occurs in several stages. In fact, methanol acting as a co-solubilizing agent for the methyl esters and the glycerol, the alcohol evaporation stage carried out at the reaction section outlet makes part of the glycerol present in the stream, in a proportion ranging between 0.1 and 5% by mass, insoluble. The soluble part represents, at ambient temperature, 500 to 700 ppm mass, the allowable maximum content set by the European standard being 200 ppm mass of free glycerol. Both the insoluble glycerol and part of the soluble glycerol therefore have to be separated. Separation is first performed through gravity decantation in a decanter drum. The ester stream flowing from the decanter is then sent to a coalescer. The glycerin phase stream is withdrawn at the bottom point of the coalescer. Methods allowing these two separation stages to be improved are described in the patent applications filed by the assignee under No. FR-07/04,711 and FR-07/04,715.

[3] = cited from earlier work

Climit(glycerol) ([1]; T 20 °C): 320 ppm
Climit(glycerol) ([1]; T 43 °C): 484 ppm
Climit(glycerol) ([1]; T 61 °C): 813 ppm
Climit(glycerol) ([1]; T 80 °C): 1233 ppm
soluble part of glycerol in ester stream [2]: 500 to 700 ppm mass
Compound: OCC(O)CO [glycerol]
solubility in alcohols ([3]; alcohols): infinitely soluble
solubility in benzene ([3]; benzene): totally insoluble
solubility in ethers ([3]; ethers): little soluble
solubility in water ([3]; water): infinitely soluble
